# Paper PMC7838546, “A Thermostable, Modified Cathelicidin-Derived Peptide With Enhanced Membrane-Active Activity Against Salmonella enterica serovar Typhimurium” (Frontiers in Microbiology, 2021)
# Test system: L929 mouse fibroblast cells
# Experiment: Cytotoxicity assay (MTT)
# Type: cell-based
# Conditions: 24 h, 62.5 μg/ml
# Description: The toxicity of P7 peptide on L929 mouse fibroblast cells was assessed by a dye reduction assay using 3-(4,5 dimethylthiazol-2-yl)-2,5-diphenyltetrazolium bromide (MTT). Briefly, 3 × 10^4 L929 cells in RPMI 1640 [supplemented with 10% (v/v) fetal bovine serum, 0.2% (w/v) sodium bicarbonate, 2 mM L-glutamine, 100 U/ml penicillin and […] streptomycin] were seeded into each well of 96-well plates and then incubated in a humidified atmosphere with 5% CO2 at 37°C for 24 h. After the incubation period, the peptide was added to obtain final concentrations of 0.98–250 μg/ml; plates were incubated at 37°C under 5% CO2 for 24 h. RPMI 1640 medium with and without cells were used as positive and negative controls, respectively. After incubation, a final concentration of 0.5 mg/ml MTT (Sigma-Aldrich, MO, United States) was added and incubated at 37°C under 5% CO2 for 4 h. Then, the supernatants were removed from each well and 150 μl of dimethyl sulfoxide (DMSO) was added and mixed thoroughly to solubilize the formazan crystals. Subsequently, absorbance was measured at 570 nm using a microplate reader. The cell viability (%) was calculated according to the formula:
# %Cellviability=ODTreated-ODBlank/ODUntreated-ODBlank×100
compound,measurement,value
"CC[C@H](C)[C@H](NC(=O)CN)C(=O)NCC(=O)N[C@@H](C)C(=O)N[C@H](C(=O)N[C@@H](CC(C)C)C(=O)N[C@@H](CCCCN)C(=O)N[C@H](C(=O)N[C@@H](CC(C)C)C(=O)N[C@H](C(=O)N[C@H](C(=O)NCC(=O)N[C@@H](CC(C)C)C(=O)N1CCC[C@H]1C(=O)N[C@@H](C)C(=O)N[C@@H](CC(C)C)C(=O)N[C@H](C(=O)N[C@@H](CO)C(=O)N[C@@H](Cc1c[nH]c2ccccc12)C(=O)N[C@H](C(=O)N[C@@H](CCCCN)C(=O)N[C@@H](CCCNC(=N)N)C(=O)N[C@@H](CCCCN)C(=O)N[C@@H](CCCNC(=N)N)C(=O)N[C@@H](CCC(N)=O)C(=O)N[C@@H](CCC(N)=O)C(N)=O)[C@@H](C)CC)[C@@H](C)CC)[C@@H](C)O)[C@@H](C)O)C(C)C)C(C)C [Melittin, reference compound]",Cell viability,less than 10%
